The subject of one series is U-87 MG. The experiment in a line: Cytotoxicity against human U-87 MG cells incubated for 48 hrs by MTT assay. The class given is functional, cell-based, U-87MG ATCC. A general note: Formazan colour is commonly taken as a measure of viable cells.
Series [1] deals with Urokinase-type plasminogen activator (Homo sapiens, UniProt P00749). In words: Inhibition of human urokinase uPA using Z-Gly-Gly-Arg-AMC as substrate by fluorescence plate reader assay.
Another series has as its system OVCAR-3. The experiment in a line: Cytotoxicity against human OVCAR-3 cells incubated for 48 hrs by MTT assay. The series is classed as functional, cell-based. Conditions: OVCAR-3, 48 h.
In a further series the test system is U-118-MG. In words: Cytotoxicity against human U-118 MG cells incubated for 48 hrs by MTT assay. The series is classed as functional, cell-based.
Another series has as its system HeLa. In words: Cytotoxicity against human HeLa cells incubated for 48 hrs by MTT assay. The class given is functional, cell-based.
The next series relates to Caco-2. In words: Cytotoxicity against human Caco-2 cells incubated for 48 hrs by MTT assay. The series is classed as functional, cell-based. Conditions: Caco-2, 48 h.
The next series relates to A549. In words: Cytotoxicity against human A549 cells incubated for 48 hrs by MTT assay. The class given is functional, cell-based. Conditions: A549, 48 h.
In another series the test system is HepG2. In words: Cytotoxicity against human HepG2 cells incubated for 48 hrs by MTT assay. The series is classed as functional, cell-based. As to conditions: HepG2, 48 h.
Series [2] can be described thus: Cytotoxicity against human MRC5 cells incubated for 48 hrs by MTT assay. The class given is toxicity, cell-based.
In a further series the test system is U-251. In words: Cytotoxicity against human U-251MG cells incubated for 48 hrs by MTT assay. As to conditions: U-251, 48 h. The class given is functional, cell-based.
The next series deals with MDA-MB-231. The experiment in a line: Cytotoxicity against human MDA-MB-231 cells incubated for 48 hrs by MTT assay. Conditions: MDA-MB-231, 48 h. The class given is functional, cell-based.
A further series has as its system SK-OV-3. The experiment in a line: Cytotoxicity against human SK-OV-3 cells incubated for 48 hrs by MTT assay. As to conditions: SK-OV-3, 48 h. The class given is functional, cell-based.

For the molecule `COc1ccc([C@@H](C)NC(c2ccc(F)cc2)P(=O)(OC(C)C)OC(C)C)cc1` (some centres undefined), the concentration for half-maximal inhibition (IC50) (as a rule, the concentration that inhibits the measured activity by half) in the series with U-87 MG came out at 21.7 µM; in series [1] it was 493 µM; with OVCAR-3, 44.3 µM; in the series on U-118-MG, 18.2 µM; with HeLa it was 3.18 µM; with Caco-2, 6.47 µM. The IC50 worked out at 37.7 µM with A549; 7.74 µM in the series on HepG2; 27 µM with U-251; 33.8 µM in the series on MDA-MB-231; 8.41 µM in the series on SK-OV-3. In addition, the half-inhibitory concentration (IC50) at 48 h in series [2] amounted to 5.9 µM.
Take `CCOP(=O)(OCC)C(N[C@@H](C)C(C)(C)C)c1c(F)cc(F)cc1F` (some centres undefined): the IC50 is 11.5 µM in the series on U-87 MG; 671 µM in series [1]; 55.1 µM in the series with OVCAR-3; 40.7 µM in the series with U-118-MG; 10.6 µM in the series with HeLa; 0.39 µM with Caco-2. The concentration for half-maximal inhibition (IC50) in the series with A549 was 33.3 µM; with HepG2, 46.7 µM; in the series on U-251, 7.57 µM; in the series with MDA-MB-231, 39.3 µM; in the series on SK-OV-3, 16.6 µM. In series [2], the IC50 at 48 h came out at 36.5 µM.

These data come from ChEMBL document CHEMBL6074679, “Diastereoselective synthesis and biological evaluation of new fluorine-containing α-aminophosphonates as anticancer agents and scaffold to human urokinase plasminogen activator inhibitors” (Eur J Med Chem, 2025).
